Results published in the kinase profiling compilation of Christmann-Franck et al. (2016).

What was measured:
Test in all cases: radiometric filter-binding kinase assay, Kinase HotSpot
Settings in all cases: compound 0.5 µM; ATP 10 µM
MARK4 (human) = MARK4 (human) (UniProt Q96L34)
EPHA5 (human) = EPHA5 (human) (UniProt P54756)
TSSK2 (human) = TSSK2 (human) (UniProt Q96PF2)
RAF1 (human) = RAF1 (human) (UniProt P04049)
SYK (human) = SYK (human) (UniProt P43405)
CDK9 CCNT1 (human) = CDK9 CCNT1 (human) (UniProt P50750+O60563)
MYLK (human) = MYLK (human) (UniProt Q15746)
TGFBR1 (human) = TGFBR1 (human) (UniProt P36897)
CSNK2A1 (human) = CSNK2A1 (human) (UniProt P68400)
Chain of CSNK2A1 (human) (P68400 whole entry, looked up): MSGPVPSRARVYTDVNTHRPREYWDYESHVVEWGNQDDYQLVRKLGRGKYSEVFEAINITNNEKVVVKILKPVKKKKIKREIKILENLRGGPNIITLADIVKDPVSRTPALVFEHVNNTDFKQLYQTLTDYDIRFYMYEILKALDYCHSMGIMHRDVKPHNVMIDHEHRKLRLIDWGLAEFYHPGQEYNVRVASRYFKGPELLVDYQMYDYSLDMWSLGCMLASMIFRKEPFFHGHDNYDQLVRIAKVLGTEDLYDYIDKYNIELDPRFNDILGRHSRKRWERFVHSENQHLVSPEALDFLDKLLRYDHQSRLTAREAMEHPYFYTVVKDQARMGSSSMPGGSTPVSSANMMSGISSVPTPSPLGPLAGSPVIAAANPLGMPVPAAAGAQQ

MAPK12 (human) = MAPK12 (human) (UniProt P53778)
STK17A (human) = STK17A (human) (UniProt Q9UEE5)
PRKACA (human) = PRKACA (human) (UniProt P17612)
MARK3 (human) = MARK3 (human) (UniProt P27448)
ACVR1B (human) = ACVR1B (human) (UniProt P36896)
Chain of ACVR1B (human) (P36896 whole entry, looked up): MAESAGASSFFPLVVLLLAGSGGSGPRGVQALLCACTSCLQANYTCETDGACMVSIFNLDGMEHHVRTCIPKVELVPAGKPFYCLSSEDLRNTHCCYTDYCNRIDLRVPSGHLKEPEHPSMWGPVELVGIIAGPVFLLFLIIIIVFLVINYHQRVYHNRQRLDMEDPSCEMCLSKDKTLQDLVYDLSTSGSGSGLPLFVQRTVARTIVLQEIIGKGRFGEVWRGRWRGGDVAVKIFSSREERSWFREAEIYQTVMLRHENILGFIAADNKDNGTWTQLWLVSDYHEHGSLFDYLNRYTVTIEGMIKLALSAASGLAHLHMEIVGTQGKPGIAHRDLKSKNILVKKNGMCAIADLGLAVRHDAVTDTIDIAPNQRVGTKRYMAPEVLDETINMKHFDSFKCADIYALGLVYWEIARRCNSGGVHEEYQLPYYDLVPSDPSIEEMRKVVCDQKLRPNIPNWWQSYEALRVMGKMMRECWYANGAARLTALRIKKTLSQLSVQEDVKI

NEK4 (human) = NEK4 (human) (UniProt P51957)
TEC (human) = TEC (human) (UniProt P42680)
[1] = target: JAK1 JH1 catalytic (human) (UniProt P23458)
GSK3A (human) = GSK3A (human) (UniProt P49840)
SRC (human) = SRC (human) (UniProt P12931)
PLK2 (human) = PLK2 (human) (UniProt Q9NYY3)
[2] = target: TYK2 JH1 catalytic (human) (UniProt P29597)
STK24 (human) = STK24 (human) (UniProt Q9Y6E0)
FGFR3 (human) = FGFR3 (human) (UniProt P22607)
Chain of FGFR3 (human) (P22607 whole entry, looked up): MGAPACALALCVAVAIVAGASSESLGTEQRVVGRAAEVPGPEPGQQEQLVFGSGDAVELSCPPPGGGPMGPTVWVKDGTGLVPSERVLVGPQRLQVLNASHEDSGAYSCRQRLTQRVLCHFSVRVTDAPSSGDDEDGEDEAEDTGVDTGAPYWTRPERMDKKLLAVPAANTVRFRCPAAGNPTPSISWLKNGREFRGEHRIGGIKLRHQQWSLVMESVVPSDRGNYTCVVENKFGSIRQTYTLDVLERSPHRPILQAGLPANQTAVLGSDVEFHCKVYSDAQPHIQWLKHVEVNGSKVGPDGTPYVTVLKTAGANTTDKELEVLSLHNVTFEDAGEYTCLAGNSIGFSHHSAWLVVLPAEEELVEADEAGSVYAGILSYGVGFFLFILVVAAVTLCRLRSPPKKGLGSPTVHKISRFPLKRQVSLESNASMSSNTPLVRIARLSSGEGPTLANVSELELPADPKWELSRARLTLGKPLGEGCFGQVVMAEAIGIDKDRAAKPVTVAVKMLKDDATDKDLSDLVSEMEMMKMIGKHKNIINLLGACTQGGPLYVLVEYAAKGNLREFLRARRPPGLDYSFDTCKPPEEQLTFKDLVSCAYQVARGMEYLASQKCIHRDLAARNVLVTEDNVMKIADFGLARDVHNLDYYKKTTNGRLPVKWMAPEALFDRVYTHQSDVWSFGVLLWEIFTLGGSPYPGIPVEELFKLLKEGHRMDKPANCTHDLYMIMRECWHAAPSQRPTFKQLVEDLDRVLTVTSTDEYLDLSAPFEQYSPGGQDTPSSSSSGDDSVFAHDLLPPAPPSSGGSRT

AXL (human) = AXL (human) (UniProt P30530)
MAP4K2 (human) = MAP4K2 (human) (UniProt Q12851)
ROCK2 (human) = ROCK2 (human) (UniProt O75116)
Chain of ROCK2 (human) (O75116 whole entry, looked up): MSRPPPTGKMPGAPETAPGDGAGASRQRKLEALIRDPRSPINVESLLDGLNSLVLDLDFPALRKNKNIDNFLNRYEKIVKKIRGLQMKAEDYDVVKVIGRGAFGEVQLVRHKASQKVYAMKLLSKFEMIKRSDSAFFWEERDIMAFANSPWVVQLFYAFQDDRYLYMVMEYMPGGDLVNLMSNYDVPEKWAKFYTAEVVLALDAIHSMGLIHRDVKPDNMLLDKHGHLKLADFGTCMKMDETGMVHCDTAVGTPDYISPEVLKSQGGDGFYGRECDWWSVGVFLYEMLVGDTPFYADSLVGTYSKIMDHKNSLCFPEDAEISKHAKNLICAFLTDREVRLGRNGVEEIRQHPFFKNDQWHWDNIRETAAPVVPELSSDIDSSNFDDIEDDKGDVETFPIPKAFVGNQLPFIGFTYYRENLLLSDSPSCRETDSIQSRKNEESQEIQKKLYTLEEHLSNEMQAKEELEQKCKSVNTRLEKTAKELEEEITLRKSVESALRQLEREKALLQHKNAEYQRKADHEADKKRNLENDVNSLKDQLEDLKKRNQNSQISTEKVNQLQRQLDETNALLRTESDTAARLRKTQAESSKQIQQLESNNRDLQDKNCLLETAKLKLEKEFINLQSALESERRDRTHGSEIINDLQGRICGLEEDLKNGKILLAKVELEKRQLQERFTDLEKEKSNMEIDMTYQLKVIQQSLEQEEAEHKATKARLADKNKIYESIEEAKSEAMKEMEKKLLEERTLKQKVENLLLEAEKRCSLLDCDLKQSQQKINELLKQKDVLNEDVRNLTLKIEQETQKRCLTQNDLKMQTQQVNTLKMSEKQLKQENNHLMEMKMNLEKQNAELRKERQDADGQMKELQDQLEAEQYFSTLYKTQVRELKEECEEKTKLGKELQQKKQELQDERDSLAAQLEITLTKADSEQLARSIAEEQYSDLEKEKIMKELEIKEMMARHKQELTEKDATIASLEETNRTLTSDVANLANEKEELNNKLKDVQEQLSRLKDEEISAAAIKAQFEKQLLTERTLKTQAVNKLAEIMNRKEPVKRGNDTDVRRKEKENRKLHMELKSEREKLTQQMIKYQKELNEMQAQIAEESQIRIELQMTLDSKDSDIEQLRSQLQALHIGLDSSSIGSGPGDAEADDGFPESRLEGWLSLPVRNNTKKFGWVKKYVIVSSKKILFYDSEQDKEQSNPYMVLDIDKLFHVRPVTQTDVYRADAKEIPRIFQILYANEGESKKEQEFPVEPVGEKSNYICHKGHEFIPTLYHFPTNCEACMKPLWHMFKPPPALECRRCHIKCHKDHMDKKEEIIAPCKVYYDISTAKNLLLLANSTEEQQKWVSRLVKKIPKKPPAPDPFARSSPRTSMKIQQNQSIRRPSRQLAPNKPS

ZAP70 (human) = ZAP70 (human) (UniProt P43403)
CSNK1A1 (human) = CSNK1A1 (human) (UniProt P48729)
Chain of CSNK1A1 (human) (P48729 whole entry, looked up): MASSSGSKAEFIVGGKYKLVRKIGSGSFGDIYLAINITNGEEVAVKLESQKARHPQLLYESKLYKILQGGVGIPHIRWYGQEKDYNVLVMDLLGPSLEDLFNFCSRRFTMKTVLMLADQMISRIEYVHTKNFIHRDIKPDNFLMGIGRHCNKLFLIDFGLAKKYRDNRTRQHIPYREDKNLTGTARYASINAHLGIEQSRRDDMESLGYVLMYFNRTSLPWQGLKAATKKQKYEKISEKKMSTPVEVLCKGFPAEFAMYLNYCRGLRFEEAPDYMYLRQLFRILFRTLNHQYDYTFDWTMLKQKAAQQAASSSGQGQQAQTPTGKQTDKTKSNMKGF

PTK2B (human) = PTK2B (human) (UniProt Q14289)
BTK (human) = BTK (human) (UniProt Q06187)
EPHB2 (human) = EPHB2 (human) (UniProt P29323)
MAP3K3 (human) = MAP3K3 (human) (UniProt Q99759)
RIPK2 (human) = RIPK2 (human) (UniProt O43353)
CSNK1G3 (human) = CSNK1G3 (human) (UniProt Q9Y6M4)
PRKD2 (human) = PRKD2 (human) (UniProt Q9BZL6)
CDC42BPA (human) = CDC42BPA (human) (UniProt Q5VT25)
SLK (human) = SLK (human) (UniProt Q9H2G2)
AURKA (human) = AURKA (human) (UniProt O14965)
Chain of AURKA (human) (O14965 whole entry, looked up): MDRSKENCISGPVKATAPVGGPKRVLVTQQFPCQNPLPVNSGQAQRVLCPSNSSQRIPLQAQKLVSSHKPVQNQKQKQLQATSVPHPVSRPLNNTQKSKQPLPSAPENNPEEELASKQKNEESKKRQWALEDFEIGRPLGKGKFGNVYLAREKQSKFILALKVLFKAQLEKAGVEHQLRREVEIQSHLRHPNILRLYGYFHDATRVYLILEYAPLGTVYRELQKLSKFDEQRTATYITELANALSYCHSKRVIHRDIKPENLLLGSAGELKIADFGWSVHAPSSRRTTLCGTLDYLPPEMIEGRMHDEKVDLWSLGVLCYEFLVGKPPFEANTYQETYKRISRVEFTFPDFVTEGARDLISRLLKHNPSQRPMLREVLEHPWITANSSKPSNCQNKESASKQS

AKT1 (human) = AKT1 (human) (UniProt P31749)
PAK6 (human) = PAK6 (human) (UniProt Q9NQU5)
CAMKK2 (human) = CAMKK2 (human) (UniProt Q96RR4)
MAPK14 (human) = MAPK14 (human) (UniProt Q16539)
Chain of MAPK14 (human) (Q16539 whole entry, looked up): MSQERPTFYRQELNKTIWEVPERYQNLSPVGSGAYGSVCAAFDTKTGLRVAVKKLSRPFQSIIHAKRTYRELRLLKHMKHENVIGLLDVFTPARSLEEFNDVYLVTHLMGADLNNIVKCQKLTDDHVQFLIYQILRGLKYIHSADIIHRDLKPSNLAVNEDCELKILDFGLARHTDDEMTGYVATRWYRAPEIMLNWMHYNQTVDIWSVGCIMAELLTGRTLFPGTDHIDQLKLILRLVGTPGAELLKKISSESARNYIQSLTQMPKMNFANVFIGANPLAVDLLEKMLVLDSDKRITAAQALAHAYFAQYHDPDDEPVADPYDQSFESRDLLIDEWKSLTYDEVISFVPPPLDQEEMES

Chain of RAF1 (human) (P04049 whole entry, looked up): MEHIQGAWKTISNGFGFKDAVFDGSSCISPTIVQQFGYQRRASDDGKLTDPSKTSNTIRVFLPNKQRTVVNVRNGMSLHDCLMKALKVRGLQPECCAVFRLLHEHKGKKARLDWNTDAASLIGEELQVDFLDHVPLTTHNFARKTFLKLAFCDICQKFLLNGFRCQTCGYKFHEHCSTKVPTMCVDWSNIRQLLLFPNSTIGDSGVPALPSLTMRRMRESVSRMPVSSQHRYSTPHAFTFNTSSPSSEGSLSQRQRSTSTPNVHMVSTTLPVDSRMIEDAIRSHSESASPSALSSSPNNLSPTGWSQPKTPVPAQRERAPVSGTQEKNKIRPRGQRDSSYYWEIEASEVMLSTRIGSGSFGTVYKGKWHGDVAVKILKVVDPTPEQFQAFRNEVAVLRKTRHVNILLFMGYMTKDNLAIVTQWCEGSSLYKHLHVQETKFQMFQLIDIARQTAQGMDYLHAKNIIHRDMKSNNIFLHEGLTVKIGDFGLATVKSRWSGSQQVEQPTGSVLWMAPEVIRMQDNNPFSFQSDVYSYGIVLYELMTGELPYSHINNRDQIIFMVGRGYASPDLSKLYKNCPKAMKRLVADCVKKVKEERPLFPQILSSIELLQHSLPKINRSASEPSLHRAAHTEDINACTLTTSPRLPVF

O=C1Nc2ccc(Br)cc2/C1=C\c1cc2c([nH]1)CCCC2
residual activity (MARK4 (human)): 82.9% | residual activity (EPHA5 (human)): 91.3% | residual activity (TSSK2 (human)): 89.8% | residual activity (RAF1 (human)): 88.2% | residual activity (SYK (human)): 90.5% | residual activity (CDK9 CCNT1 (human)): 90% | residual activity (MYLK (human)): 95.7% | residual activity (TGFBR1 (human)): 100% | residual activity (CSNK2A1 (human)): 96.1% | residual activity (MAPK12 (human)): 93% | residual activity (STK17A (human)): 72.9% | residual activity (PRKACA (human)): 96.5% | residual activity (MARK3 (human)): 84.9% | residual activity (ACVR1B (human)): 99% | residual activity (NEK4 (human)): 80.5% | residual activity (TEC (human)): 129% | residual activity [1]: 99.3% | residual activity (GSK3A (human)): 88.5% | residual activity (SRC (human)): 88.8% | residual activity (PLK2 (human)): 102% | residual activity [2]: 86% | residual activity (STK24 (human)): 94.2% | residual activity (FGFR3 (human)): 55.8% | residual activity (AXL (human)): 90% | residual activity (MAP4K2 (human)): 58.1% | residual activity (ROCK2 (human)): 92.8% | residual activity (ZAP70 (human)): 93.9% | residual activity (CSNK1A1 (human)): 100% | residual activity (PTK2B (human)): 82.4% | residual activity (BTK (human)): 90.5% | residual activity (EPHB2 (human)): 85.4% | residual activity (MAP3K3 (human)): 88.6% | residual activity (RIPK2 (human)): 87.2% | residual activity (CSNK1G3 (human)): 103% | residual activity (PRKD2 (human)): 95.8% | residual activity (CDC42BPA (human)): 81.9% | residual activity (SLK (human)): 73.4% | residual activity (AURKA (human)): 87.5% | residual activity (AKT1 (human)): 99.8% | residual activity (PAK6 (human)): 89.8% | residual activity (CAMKK2 (human)): 68.1%

N#Cc1c[nH]c2c[nH]/c(=N\Cc3cccnc3)cc2/c1=N\c1ccc(F)c(Cl)c1
residual activity (MARK4 (human)): 96.4% | residual activity (EPHA5 (human)): 90.6% | residual activity (TSSK2 (human)): 100% | residual activity (RAF1 (human)): 90.9% | residual activity (SYK (human)): 94.4% | residual activity (CDK9 CCNT1 (human)): 91.2% | residual activity (MYLK (human)): 105% | residual activity (TGFBR1 (human)): 99.6% | residual activity (CSNK2A1 (human)): 95.9% | residual activity (STK17A (human)): 79.6% | residual activity (PRKACA (human)): 92.2% | residual activity (MARK3 (human)): 101% | residual activity (ACVR1B (human)): 99% | residual activity (NEK4 (human)): 71.7% | residual activity (TEC (human)): 118% | residual activity [1]: 93.6% | residual activity (GSK3A (human)): 88.5% | residual activity (MAPK14 (human)): 115% | residual activity (SRC (human)): 92.6% | residual activity (PLK2 (human)): 110% | residual activity [2]: 103% | residual activity (STK24 (human)): 95.6% | residual activity (FGFR3 (human)): 91.7% | residual activity (AXL (human)): 103% | residual activity (MAP4K2 (human)): 72.2% | residual activity (ROCK2 (human)): 97.1% | residual activity (ZAP70 (human)): 103% | residual activity (CSNK1A1 (human)): 101% | residual activity (PTK2B (human)): 100% | residual activity (BTK (human)): 98.3% | residual activity (EPHB2 (human)): 97.4% | residual activity (MAP3K3 (human)): 75% | residual activity (RIPK2 (human)): 85.3% | residual activity (CSNK1G3 (human)): 103% | residual activity (PRKD2 (human)): 99.7% | residual activity (CDC42BPA (human)): 80% | residual activity (SLK (human)): 86.6% | residual activity (AURKA (human)): 98.1% | residual activity (AKT1 (human)): 98.6% | residual activity (PAK6 (human)): 104% | residual activity (CAMKK2 (human)): 90.1%

O=C1C(Cl)=C(N2C(=O)CCC2=O)C(=O)c2ccccc21
residual activity (MARK4 (human)): 99.6% | residual activity (EPHA5 (human)): 113% | residual activity (TSSK2 (human)): 103% | residual activity (RAF1 (human)): 93% | residual activity (SYK (human)): 95.9% | residual activity (CDK9 CCNT1 (human)): 101% | residual activity (MYLK (human)): 99.4% | residual activity (TGFBR1 (human)): 101% | residual activity (CSNK2A1 (human)): 99.3% | residual activity (MAPK12 (human)): 100% | residual activity (STK17A (human)): 101% | residual activity (PRKACA (human)): 88.8% | residual activity (MARK3 (human)): 87.8% | residual activity (ACVR1B (human)): 106% | residual activity (NEK4 (human)): 99.6% | residual activity (TEC (human)): 101% | residual activity [1]: 107% | residual activity (GSK3A (human)): 99.8% | residual activity (MAPK14 (human)): 88.1% | residual activity (SRC (human)): 95.1% | residual activity (PLK2 (human)): 96% | residual activity [2]: 102% | residual activity (STK24 (human)): 87% | residual activity (FGFR3 (human)): 106% | residual activity (MAP4K2 (human)): 89.6% | residual activity (ROCK2 (human)): 91.5% | residual activity (ZAP70 (human)): 93.8% | residual activity (CSNK1A1 (human)): 99.2% | residual activity (PTK2B (human)): 105% | residual activity (BTK (human)): 103% | residual activity (EPHB2 (human)): 98.7% | residual activity (MAP3K3 (human)): 95.5% | residual activity (RIPK2 (human)): 84.8% | residual activity (CSNK1G3 (human)): 93.5% | residual activity (PRKD2 (human)): 95.7% | residual activity (CDC42BPA (human)): 103% | residual activity (SLK (human)): 104% | residual activity (AURKA (human)): 105% | residual activity (AKT1 (human)): 103% | residual activity (PAK6 (human)): 89.6% | residual activity (CAMKK2 (human)): 86.1%

CN(C)S(=O)(=O)c1ccc2c(c1)/C(=C/c1cc3c([nH]1)CCCC3)C(=O)N2
residual activity (MARK4 (human)): 51.5% | residual activity (EPHA5 (human)): 85.1% | residual activity (TSSK2 (human)): 91.8% | residual activity (RAF1 (human)): 97.7% | residual activity (SYK (human)): 77.7% | residual activity (CDK9 CCNT1 (human)): 95.9% | residual activity (MYLK (human)): 97.2% | residual activity (TGFBR1 (human)): 95.9% | residual activity (CSNK2A1 (human)): 105% | residual activity (MAPK12 (human)): 103% | residual activity (PRKACA (human)): 106% | residual activity (MARK3 (human)): 68.9% | residual activity (ACVR1B (human)): 105% | residual activity (NEK4 (human)): 99.9% | residual activity (TEC (human)): 116% | residual activity [1]: 66.8% | residual activity (GSK3A (human)): 99.4% | residual activity (MAPK14 (human)): 98.8% | residual activity (SRC (human)): 23.6% | residual activity (PLK2 (human)): 94.4% | residual activity [2]: 11.4% | residual activity (STK24 (human)): 47.7% | residual activity (FGFR3 (human)): 57.1% | residual activity (AXL (human)): 39.7% | residual activity (MAP4K2 (human)): 20.8% | residual activity (ROCK2 (human)): 88.2% | residual activity (ZAP70 (human)): 90% | residual activity (CSNK1A1 (human)): 91.7% | residual activity (PTK2B (human)): 52.6% | residual activity (BTK (human)): 97.4% | residual activity (EPHB2 (human)): 98.4% | residual activity (MAP3K3 (human)): 48.7% | residual activity (RIPK2 (human)): 88.9% | residual activity (CSNK1G3 (human)): 101% | residual activity (PRKD2 (human)): 102% | residual activity (CDC42BPA (human)): 92.3% | residual activity (SLK (human)): 23.4% | residual activity (AURKA (human)): 16.1% | residual activity (AKT1 (human)): 107% | residual activity (PAK6 (human)): 98.9% | residual activity (CAMKK2 (human)): 27.3%
